We go through twelve compounds from PMC7531004, “Discovery of gramicidin A analogues with altered activities by multidimensional screening of a one-bead-one-compound library” (Nature Communications, 2020).

Each structure is given as a SMILES string. Where a SMILES comes first, the peptide text is derived from it. [ ]: non-standard residue; d: D form. The star is where a group is joined. NHCH2CH2OH = OCCN*; For = O=C*

The test system of data set [1] is P388 mouse leukemia cells. The settings on record: 92 h. The method, boiled down: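 Peptide stocks diluted 250× in growth medium; P388 cells 1 × 10^4 cells/mL final; 37 °C, 5% CO2, 92 h. WST-1 + 1-methoxy PMS, 4 h, A415. Output: % viability.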
Data set [2] is described as follows: H+/Na+ transport assay of bead-derived peptides (one-point).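 Also: relative to parent gramicidin A activity set to 1.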 Format: biochemical. Also noted: key: relative activity; mean of two control wells = 1.00. The settings on record: bead-derived peptide solution, EYPC/EYPG LUVs. The method, boiled down:
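Miniaturized 96-well format. LUVs with entrapped pyranine (1.0 mM) were exposed to peptide for 30 min at RT. Intensities were expressed relative to full lysis by Triton X-100 and no treatment, with control-well mean = 1.00.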

Data set [3] deals with Streptococcus pyogenes SSI-9. Nature of the data set: Antibacterial activity assay of bead-derived peptides (three concentrations). Format: cell-based. Also noted: key: +++: inhibition by the 640-fold diluted peptide solution; ++: inhibition by the 160-fold diluted solution; +: inhibition by the 40-fold diluted solution; -: no inhibition. The settings on record: S. pyogenes, bead-derived peptide solution, three concentrations. The method, boiled down: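 Growth inhibition scored visually as precipitated bacteria after 37 °C, 18 h incubation. Streptococcus pyogenes SSI-9 inoculum of 2 × 10^5 CFU in Ca2+/Mg2+-adjusted Mueller Hinton broth plus 5% laked horse blood; peptides tested at three levels: stock, 4-fold and 16-fold DMSO dilutions.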

Compound `CC(C)C[C@@H](NC(=O)[C@H](Cc1c[nH]c2ccccc12)NC(=O)[C@H](NC(=O)[C@H](Cc1c[nH]c2ccccc12)NC(=O)[C@@H](CC(C)C)NC(=O)[C@H](Cc1c[nH]c2ccccc12)NC(=O)[C@H](NC(=O)[C@@H](NC(=O)[C@H](NC(=O)[C@H](C)NC(=O)[C@H](NC(=O)[C@H](C)NC(=O)CNC(=O)[C@@H](NC=O)C(C)C)[C@H](C)O)C(C)C)C(C)C)C(C)C)C(C)C)C(=O)N[C@@H](Cc1c[nH]c2ccccc12)C(=O)NCCO` [compound 11199] (For-VGA[dT]A[dV]V[dV]W[dL]W[dV]W[dL]W-NHCH2CH2OH) displayed a cell viability/% in data set [1] of 65.2%. Besides, the “H+/Na+ transport activity normalized against the value of 1 (1.00)” value (from here on “H+/Na+ transport activity normalized”) in data set [2] is 1.00. In data set [3], the antibacterial activity entry is “-”.
Taken in the same sequence, the figures for `CNC(=O)C[C@@H](NC(=O)[C@@H](NC(=O)[C@@H](CC(C)C)NC(=O)[C@H](C)NC(=O)[C@H](NC(=O)[C@H](C)NC(=O)CNC(=O)[C@@H](NC=O)C(C)C)C(C)C)C(C)C)C(=O)N[C@@H](Cc1c[nH]c2ccccc12)C(=O)N[C@@H](C(=O)N[C@@H](Cc1c[nH]c2ccccc12)C(=O)N[C@H](CC(C)C)C(=O)N[C@@H](Cc1c[nH]c2ccccc12)C(=O)N[C@H](CC(C)C)C(=O)N[C@@H](Cc1c[nH]c2ccccc12)C(=O)NCCO)C(C)C` [compound 12975] (For-VGA[dV]A[dL]V[dD](NHMe)W[dV]W[dL]W[dL]W-NHCH2CH2OH) were 86.0%, 1.43 and “-”.
In data set [1], `CC(C)C[C@@H](NC(=O)[C@H](Cc1c[nH]c2ccccc12)NC(=O)[C@H](NC(=O)[C@H](Cc1c[nH]c2ccccc12)NC(=O)[C@@H](CC(C)C)NC(=O)[C@@H](NC(=O)[C@H](NC(=O)[C@H](C)NC(=O)[C@H](NC(=O)[C@H](C)NC(=O)CNC(=O)[C@@H](NC=O)C(C)C)C(C)C)C(C)C)C(C)C)C(C)C)C(=O)N[C@@H](Cc1c[nH]c2ccccc12)C(=O)N[C@@H](C(=O)N[C@@H](Cc1c[nH]c2ccccc12)C(=O)NCCO)C(C)C` [compound 2120] (For-VGA[dV]A[dV]V[dL]W[dV]W[dL]W[dV]W-NHCH2CH2OH) had a cell viability/% of 17.0%. Moreover, the “H+/Na+ transport activity normalized” value in data set [2] was 1.24. In addition, in data set [3], the antibacterial activity result is recorded as “++”.
In the case of `CC(C)C[C@@H](NC(=O)[C@H](C)NC(=O)CNC(=O)[C@@H](NC=O)C(C)C)C(=O)N[C@@H](C)C(=O)N[C@@H](C(=O)N[C@H](C(=O)N[C@@H](C(=O)N[C@@H](Cc1c[nH]c2ccccc12)C(=O)N[C@@H](C(=O)N[C@@H](Cc1c[nH]c2ccccc12)C(=O)N[C@H](CC(C)C)C(=O)N[C@@H](Cc1c[nH]c2ccccc12)C(=O)N[C@@H](C(=O)N[C@@H](Cc1c[nH]c2ccccc12)C(=O)NCCO)C(C)C)C(C)C)C(C)C)C(C)C)C(C)C` [compound 11438] (For-VGA[dL]A[dV]V[dV]W[dV]W[dL]W[dV]W-NHCH2CH2OH), the cell viability/% in data set [1] amounted to 100.0%. For the same compound, the “H+/Na+ transport activity normalized” value in data set [2] is given as 1.18. Also, the antibacterial activity result in data set [3] is listed as “++”.
Taken in the same sequence, the figures for `CC(C)C[C@@H](NC(=O)[C@H](C)NC(=O)CNC(=O)[C@@H](NC=O)C(C)C)C(=O)N[C@@H](C)C(=O)N[C@@H](C(=O)N[C@H](C(=O)N[C@@H](C(=O)N[C@@H](Cc1c[nH]c2ccccc12)C(=O)N[C@@H](C(=O)N[C@@H](Cc1c[nH]c2ccccc12)C(=O)N[C@@H](C(=O)N[C@@H](Cc1c[nH]c2ccccc12)C(=O)N[C@@H](C(=O)N[C@@H](Cc1c[nH]c2ccccc12)C(=O)NCCO)C(C)C)C(C)C)C(C)C)C(C)C)C(C)C)C(C)C` [compound 7516] (For-VGA[dL]A[dV]V[dV]W[dV]W[dV]W[dV]W-NHCH2CH2OH) were 100.0%, 1.03 and “+”.
Taken in the same sequence, the figures for `CC(C)C[C@@H](NC(=O)[C@H](C)NC(=O)[C@H](NC(=O)[C@H](C)NC(=O)CNC(=O)[C@@H](NC=O)C(C)C)[C@H](C)O)C(=O)N[C@H](C(=O)N[C@@H](C(=O)N[C@@H](Cc1c[nH]c2ccccc12)C(=O)N[C@H](CC(C)C)C(=O)N[C@@H](Cc1c[nH]c2ccccc12)C(=O)N[C@H](CC(C)C)C(=O)N[C@@H](Cc1c[nH]c2ccccc12)C(=O)N[C@@H](C(=O)N[C@@H](Cc1c[nH]c2ccccc12)C(=O)NCCO)C(C)C)C(C)C)C(C)C` [compound 5522] (For-VGA[dT]A[dL]V[dV]W[dL]W[dL]W[dV]W-NHCH2CH2OH) were 100.0%, 1.27 and “-”.
In the same order, the values of `CC(C)C[C@@H](NC(=O)[C@H](Cc1c[nH]c2ccccc12)NC(=O)[C@@H](CC(C)C)NC(=O)[C@@H](NC(=O)[C@H](NC(=O)[C@H](C)NC(=O)[C@H](NC(=O)[C@H](C)NC(=O)CNC(=O)[C@@H](NC=O)C(C)C)C(C)C)C(C)C)C(C)C)C(=O)N[C@@H](Cc1c[nH]c2ccccc12)C(=O)N[C@@H](C(=O)N[C@@H](Cc1c[nH]c2ccccc12)C(=O)N[C@@H](C(=O)N[C@@H](Cc1c[nH]c2ccccc12)C(=O)NCCO)C(C)C)[C@H](C)O` [compound 5311] (For-VGA[dV]A[dV]V[dL]W[dL]W[dT]W[dV]W-NHCH2CH2OH) are 100.0%, 1.15 and “+”.
`CNC(=O)C[C@@H](NC(=O)[C@@H](NC(=O)[C@H](NC(=O)[C@H](C)NC(=O)[C@@H](CC(C)C)NC(=O)[C@H](C)NC(=O)CNC(=O)[C@@H](NC=O)C(C)C)C(C)C)C(C)C)C(=O)N[C@@H](Cc1c[nH]c2ccccc12)C(=O)N[C@@H](C(=O)N[C@@H](Cc1c[nH]c2ccccc12)C(=O)N[C@@H](C(=O)N[C@@H](Cc1c[nH]c2ccccc12)C(=O)N[C@H](CC(C)C)C(=O)N[C@@H](Cc1c[nH]c2ccccc12)C(=O)NCCO)C(C)C)C(C)C` [compound 12636] (For-VGA[dL]A[dV]V[dD](NHMe)W[dV]W[dV]W[dL]W-NHCH2CH2OH) came in with a cell viability/% in data set [1] of 100.0%. Besides, in data set [2], the “H+/Na+ transport activity normalized” value stood at 1.21. Moreover, the antibacterial activity result in data set [3] was “-”.
Taken in the same sequence, the figures for `CC(C)C[C@@H](NC(=O)[C@H](C)NC(=O)CNC(=O)[C@@H](NC=O)C(C)C)C(=O)N[C@@H](C)C(=O)N[C@@H](C(=O)N[C@H](C(=O)N[C@@H](C(=O)N[C@@H](Cc1c[nH]c2ccccc12)C(=O)N[C@@H](C(=O)N[C@@H](Cc1c[nH]c2ccccc12)C(=O)N[C@H](CC(C)C)C(=O)N[C@@H](Cc1c[nH]c2ccccc12)C(=O)N[C@@H](C(=O)N[C@@H](Cc1c[nH]c2ccccc12)C(=O)NCCO)C(C)C)C(C)C)[C@H](C)O)C(C)C)C(C)C` [compound 4357] (For-VGA[dL]A[dV]V[dT]W[dV]W[dL]W[dV]W-NHCH2CH2OH) were 100.0%, 1.01 and “-”.
In turn, `CC(C)C[C@@H](NC(=O)[C@H](C)NC(=O)CNC(=O)[C@@H](NC=O)C(C)C)C(=O)N[C@@H](C)C(=O)N[C@@H](C(=O)N[C@H](C(=O)N[C@@H](C(=O)N[C@@H](Cc1c[nH]c2ccccc12)C(=O)N[C@@H](C(=O)N[C@@H](Cc1c[nH]c2ccccc12)C(=O)N[C@H](CC(C)C)C(=O)N[C@@H](Cc1c[nH]c2ccccc12)C(=O)N[C@@H](C(=O)N[C@@H](Cc1c[nH]c2ccccc12)C(=O)NCCO)C(C)C)C(C)C)C(C)C)C(C)C)[C@H](C)O` [compound 9030] (For-VGA[dL]A[dT]V[dV]W[dV]W[dL]W[dV]W-NHCH2CH2OH) showed a cell viability/% in data set [1] of 71.3%. Besides, the “H+/Na+ transport activity normalized” value in data set [2] came out at 1.12. For the same compound, the antibacterial activity entry in data set [3] is listed as “-”.
In the same order, the values of `CNC(=O)C[C@@H](NC(=O)[C@@H](NC(=O)[C@H](NC(=O)[C@H](C)NC(=O)[C@H](NC(=O)[C@H](C)NC(=O)CNC(=O)[C@@H](NC=O)C(C)C)C(C)C)C(C)C)C(C)C)C(=O)N[C@@H](Cc1c[nH]c2ccccc12)C(=O)N[C@H](CC(C)C)C(=O)N[C@@H](Cc1c[nH]c2ccccc12)C(=O)N[C@H](CC(C)C)C(=O)N[C@@H](Cc1c[nH]c2ccccc12)C(=O)N[C@H](CC(C)C)C(=O)N[C@@H](Cc1c[nH]c2ccccc12)C(=O)NCCO` [compound 7437] (For-VGA[dV]A[dV]V[dD](NHMe)W[dL]W[dL]W[dL]W-NHCH2CH2OH) are 100.0%, 1.11 and “-”.
In turn, `CNC(=O)C[C@@H](NC(=O)[C@H](Cc1c[nH]c2ccccc12)NC(=O)[C@H](NC(=O)[C@H](Cc1c[nH]c2ccccc12)NC(=O)[C@@H](CC(C)C)NC(=O)[C@H](Cc1c[nH]c2ccccc12)NC(=O)[C@H](NC(=O)[C@@H](NC(=O)[C@@H](CC(C)C)NC(=O)[C@H](C)NC(=O)[C@H](NC(=O)[C@H](C)NC(=O)CNC(=O)[C@@H](NC=O)C(C)C)C(C)C)C(C)C)C(C)C)C(C)C)C(=O)N[C@@H](Cc1c[nH]c2ccccc12)C(=O)NCCO` [compound 9727] (For-VGA[dV]A[dL]V[dV]W[dL]W[dV]W[dD](NHMe)W-NHCH2CH2OH) came in with a cell viability/% in data set [1] of 100.0%. Besides, the “H+/Na+ transport activity normalized” value in data set [2] came out at 1.10. Besides, the antibacterial activity result in data set [3] is on record as “-”.
